IC50, EC50 and AC50 data for twelve molecules are collected here from patent US12590062B2, “PD-1/PD-L1 inhibitors” (Gilead Sciences, Inc., priority 2017, dated 2026).

The target in one assay is PD-1/PD-L1 (Homo sapiens, UniProt Q9NZQ7). The assay can be described thus: PD-1/PD-L1 biochemical protein-protein interaction assay (ALPHA). It counts as binding. The following applies: 0.3 nM His tagged PD-L1, 2.5 nM biotinylated Fc-PD-1, 60 minutes at 25° C., read-out: IC50 PD-L1-PD-1 Alpha IC50-mono PD-L1-fcP-D1. In outline: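 Compound blockade of the PD-1/PD-L1 extracellular-domain interaction measured as reduced ALPHA signal after 60 min at 25 °C, pH 7.4 Hepes buffer with EDTA, Tween 20 and BSA. Final proteins: His-tagged PD-L1 0.3 nM, biotinylated Fc-PD-1 2.5 nM; four-parameter curve fit gives IC50.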
Chain of PD-1/PD-L1 (Q9NZQ7 19-238 limits assumed): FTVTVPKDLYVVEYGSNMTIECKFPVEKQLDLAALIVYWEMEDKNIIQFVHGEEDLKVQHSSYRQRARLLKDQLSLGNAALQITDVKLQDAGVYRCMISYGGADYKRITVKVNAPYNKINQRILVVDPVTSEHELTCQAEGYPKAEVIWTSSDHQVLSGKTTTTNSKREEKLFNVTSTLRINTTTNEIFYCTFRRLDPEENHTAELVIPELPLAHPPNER

The target in a further assay is T1, PD-1/PD-L1 interaction (Homo sapiens, UniProt Q9NZQ7).
T1 construct: expressed in transfected cells; host or cells: CHO cells (aAPC-PD-L1) co-cultured with Jurkat cells overexpressing PD-1 and an NFAT-luciferase reporter
T1 sequence (Q9NZQ7 19-290): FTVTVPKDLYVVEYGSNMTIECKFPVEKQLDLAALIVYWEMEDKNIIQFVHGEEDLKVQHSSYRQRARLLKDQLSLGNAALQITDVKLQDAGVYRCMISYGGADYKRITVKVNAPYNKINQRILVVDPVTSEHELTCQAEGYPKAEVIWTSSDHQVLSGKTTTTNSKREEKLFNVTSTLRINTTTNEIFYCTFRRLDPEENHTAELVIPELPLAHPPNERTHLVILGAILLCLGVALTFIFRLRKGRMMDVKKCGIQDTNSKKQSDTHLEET
Put plainly: PD-1/PD-L1 NFAT reporter co-culture assay. It counts as cell-based. The conditions noted are these: Jurkat PD-1 NFAT-luciferase cells co-cultured with aAPC-PD-L1 CHO cells, 6 hrs at 37° C.; read-out: EC50 NFAT Luciferase. In outline: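 Compounds are scored by restoration of NFAT-luciferase signal in PD-1-expressing Jurkat cells cultured 6 h at 37 °C on CHO cells presenting anti-CD3 and PD-L1; EC50 values derive from four-parameter curve fitting.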

The target in the next assay is T2, PD-L1 (Homo sapiens, UniProt Q9NZQ7).
T2 construct: determine if they can specifically dimerize the extracellular domains of PD-L1
T2 sequence (Q9NZQ7 19-238 limits assumed): as the sequence (Q9NZQ7 19-238 limits assumed) above
T2 sequence (Q9NZQ7 19-238 limits assumed): as above
Put plainly: PD-L1/PD-L1 dimerization biochemical protein-protein interaction assay (ALPHA). It counts as binding. The following applies: compound-induced PD-L1 dimerization, head prints '1 nM' (0.5 nM His-tagged PD-L1 and 0.5 nM FLAG-tagged PD-L1), read-out: AC50 PDL1 Dimer Alpha 1 nM. The protocol: PD-L1/PD-L1 Dimerization Biochemical Protein-Protein Interaction Assay:
Compounds were tested in biochemical protein-protein interaction assays to determine if they can specifically dimerize the extracellular domains of PD-L1. Dimerization of the proteins (His-tagged PD-L1 and FLAG-tagged PD-L1) is measured using a bead based Amplified Luminescent Proximity Homogeneous Assay (ALPHA) platform. […] Assays are performed in 25 mM Hepes (pH 7.4), 150 mM NaCl, 3.4 mM EDTA, 0.005% Tween 20, and 0.01% BSA. Final protein concentration in the assays were 0.5 nM (His tagged PD-L) and 0.5 nM (FLAG tagged PD-L1). After an assay reaction time of 2 hours at 25° C., 20 μg/mL (final assay concentration) ALPHA assay acceptor beads (anti-His coated) were added and incubated for 60 minutes at 25° C. Binding was measured following a final 60 minute incubation with 40 μg/mL (final assay concentration) ALPHA assay donor beads (anti-FLAG coated). AC50 values were calculated from the fit of the dose-response curves to a four-parameter equation (Table 3).

On to `Cc1c(COc2cc(OCc3cncc(C#N)c3)c(CNC[C@@H](O)CC(=O)O)cc2Cl)cccc1-c1cccc(COc2cc(OCc3cncc(C#N)c3)c(CNC[C@@H](O)CC(=O)O)cc2Cl)c1C` [Example 66, (3S,3′S)-4,4′-((((((2,2′-dimethyl-[1,1′-biphenyl]-3,3′-diyl)bis(methylene))bis(oxy))bis(5-chloro-2-((5-cyanopyridin-3-yl)methoxy)-4,1-phenylene))bis(methylene))bis(azanediyl))bis(3-hydroxybutanoic acid)], for which the IC50 at PD-1/PD-L1 stood at 0.4 nM. Moreover, the EC50 at PD-1/PD-L1 interaction was 338 nM. Moreover, the AC50 at PD-L1 was determined as 370 nM.
In the case of `Cc1c(COc2nc(OCc3cccnc3)c(CNC[C@@H](O)CC(=O)O)cc2Br)cccc1-c1cccc(COc2nc(OCc3cccnc3)c(CNC[C@@H](O)CC(=O)O)cc2Br)c1C` [Example 137, (3S,3′S)-4,4′-((((((2,2′-dimethyl-[1,1′-biphenyl]-3,3′-diyl)bis(methylene))bis(oxy))bis(5-bromo-2-(pyridin-3-ylmethoxy)pyridine-6,3-diyl))bis(methylene))bis(azanediyl))bis(3-hydroxybutanoic acid)], the 50% inhibitory concentration (IC50) on PD-1/PD-L1 worked out at 0.6 nM. In addition, on PD-1/PD-L1 interaction, the EC50 is 1450 nM. In addition, the AC50 at PD-L1 turned out to be 195 nM.
Turning to `Cc1c(COc2nc(OCCCC#N)c(CNC[C@@H](O)CC(=O)O)cc2Br)cccc1-c1cccc(COc2nc(OCCCC#N)c(CNC[C@@H](O)CC(=O)O)cc2Br)c1C` [Example 144, (3S,3′S)-4,4′-((((((2,2′-dimethyl-[1,1′-biphenyl]-3,3′-diyl)bis(methylene))bis(oxy))bis(5-bromo-2-(3-cyanopropoxy)pyridine-6,3-diyl))bis(methylene))bis(azanediyl))bis(3-hydroxybutanoic acid)], the concentration for a half-maximal effect (EC50) on PD-1/PD-L1 interaction was determined as 201 nM. For the same molecule, the AC50 on PD-L1 is 206 nM.
On the same counts, the results for `COc1nc(OCc2cccc(-c3cccc(COc4nc(OC)c(CNC[C@H](O)CC(=O)O)cc4Br)c3Cl)c2Cl)c(Br)cc1CNC[C@H](O)CC(=O)O` [Example 191, (3R,3′R)-4,4′-((((((2,2′-Dichloro-[1,1′-biphenyl]-3,3′-diyl)bis(methylene))bis(oxy))bis(5-bromo-2-methoxypyridine-6,3-diyl))bis(methylene))bis(azanediyl))bis(3-hydroxybutanoic acid)] are 60 nM and not below 10000 nM.
On the same counts, the results for `N#Cc1cncc(COc2nc(OCc3cccc(-c4cccc(COc5nc(OCc6cncc(C#N)c6)c(CNC[C@@H](O)CC(=O)O)cc5Br)c4Cl)c3Cl)c(Br)cc2CNC[C@@H](O)CC(=O)O)c1` [Example 193, (3S,3′S)-4,4′-((((((2,2′-Dichloro-[1,1′-biphenyl]-3,3′-diyl)bis(methylene))bis(oxy))bis(5-bromo-2-((5-cyanopyridin-3-yl)methoxy)pyridine-6,3-diyl))bis(methylene))bis(azanediyl))bis(3-hydroxybutanoic acid)] are 99 nM and 132 nM.
For the molecule `N#Cc1cncc(COc2nc(OCc3cccc(-c4cccc(COc5nc(OCc6cncc(C#N)c6)c(CNC[C@H](O)CC(=O)O)cc5Br)c4Cl)c3Cl)c(Br)cc2CNC[C@H](O)CC(=O)O)c1` [Example 196, (3R,3′R)-4,4′-((((((2,2′-Dichloro-[1,1′-biphenyl]-3,3′-diyl)bis(methylene))bis(oxy))bis(5-bromo-2-((5-cyanopyridin-3-yl)methoxy)pyridine-6,3-diyl))bis(methylene))bis(azanediyl))bis(3-hydroxybutanoic acid)], the EC50 on PD-1/PD-L1 interaction is 151 nM. Besides, the AC50 on PD-L1 is 223 nM.
As for `Cc1c(COc2cc(OCc3cncc(C#N)c3)c(CNC[C@@H](O)CC(=O)O)cc2Cl)cccc1-c1cccc(-c2ccc3oc(CNC[C@@H](O)CC(=O)O)cc3c2)c1C` [Example 210, (S)-4-(((5-(3′-((4-((((S)-3-carboxy-2-hydroxypropyl)amino)methyl)-2-chloro-5-((5-cyanopyridin-3-yl)methoxy)phenoxy)methyl)-2,2′-dimethyl-[1,1′-biphenyl]-3-yl)benzofuran-2-yl)methyl)amino)-3-hydroxybutanoic acid], at PD-1/PD-L1 interaction, the EC50 is 114 nM. Also, the AC50 on PD-L1 amounted to 83.1 nM.
On to `Cc1c(COc2cc(OCc3cc(C#N)ccn3)c(CNC[C@@H](O)CC(=O)O)cc2Cl)cccc1-c1cccc(COc2cc(OCc3cc(C#N)ccn3)c(CNC[C@@H](O)CC(=O)O)cc2Cl)c1C` [Example 225, (3S,3′S)-4,4′-((((((2,2′-dimethyl-[1,1′-biphenyl]-3,3′-diyl)bis(methylene))bis(oxy))bis(5-chloro-2-((4-cyanopyridin-2-yl)methoxy)-4,1-phenylene))bis(methylene))bis(azanediyl))bis(3-hydroxybutanoic acid)], for which the half-maximal effective concentration (EC50) at PD-1/PD-L1 interaction is 145 nM. Besides, the AC50 at PD-L1 was determined as 423 nM.
Turning to `CC(C)(NCc1cc(Cl)c(O[C@H]2CCc3c(-c4cccc(-c5ccc(S(N)(=O)=O)cc5)c4Cl)cccc32)nc1OCc1cncc(C#N)c1)C(=O)O` [Example 289, (S)-2-(((5-chloro-6-((4-(2-chloro-4′-sulfamoyl-[1,1′-biphenyl]-3-yl)-2,3-dihydro-1H-inden-1-yl)oxy)-2-((5-cyanopyridin-3-yl)methoxy)pyridin-3-yl)methyl)amino)-2-methylpropanoic acid], the half-inhibitory concentration (IC50) on PD-1/PD-L1 came to 0.075 nM. In addition, the EC50 on PD-1/PD-L1 interaction turned out to be 70 nM. In addition, the AC50 at PD-L1 is not below 10000 nM.
Take `Cc1c(OCc2cc(OCc3cncc(C#N)c3)c(CN[C@@](C)(CO)C(=O)O)cc2Cl)cccc1-c1cccc(-c2ccc(OCCN[C@@](C)(CO)C(=O)O)cc2)c1C` [Example 388, (S)-2-((4-(((4″-(2-(((S)-2-carboxy-1-hydroxypropan-2-yl)amino)ethoxy)-2,2′-dimethyl-[1,1′:3′,1″-terphenyl]-3-yl)oxy)methyl)-5-chloro-2-((5-cyanopyridin-3-yl)methoxy)benzyl)amino)-3-hydroxy-2-methylpropanoic acid]: the EC50 at PD-1/PD-L1 interaction was 225 nM. At PD-L1, the AC50 was not below 10000 nM.
In the same order, the values of `Cc1c(COc2cc(OCc3cncc(C#N)c3)c(CNC[C@@H](O)CC(=O)O)cc2Cl)cccc1-c1cccc(-c2ccc3cc(CNC[C@@H](O)CC(=O)O)ccc3n2)c1C` [Example 398, (S)-4-(((2-(3′-((4-((((S)-3-carboxy-2-hydroxypropyl)amino)methyl)-2-chloro-5-((5-cyanopyridin-3-yl)methoxy)phenoxy)methyl)-2,2′-dimethyl-[1,1′-biphenyl]-3-yl)quinolin-6-yl)methyl)amino)-3-hydroxybutanoic acid] are 1100 nM and 728 nM.
Consider `Cc1c(COc2cc(OCc3cncc(C#N)c3)c(CNC[C@@H](O)CC(=O)O)cc2Cl)cccc1-c1cccc(-c2ccc3sc(CNC[C@@H](O)CC(=O)O)nc3c2)c1C` [Example 399, (S)-4-(((5-(3′-((4-((((S)-3-carboxy-2-hydroxypropyl)amino)methyl)-2-chloro-5-((5-cyanopyridin-3-yl)methoxy)phenoxy)methyl)-2,2′-dimethyl-[1,1′-biphenyl]-3-yl)benzo[d]thiazol-2-yl)methyl)amino)-3-hydroxybutanoic acid], for which the EC50 on PD-1/PD-L1 interaction was determined as 319 nM. The half-maximal activity concentration (AC50) at PD-L1 was 289 nM.

One may read the IC50 as the concentration that gives 50% inhibition. A word on the EC50: it is the midpoint of the concentration-response curve. As a reminder, the AC50 is the concentration at which the activity in the assay is half-maximal.
